Source: patent US10703748B2, “Diazanaphthalen-3-yl carboxamides and preparation and use thereof” (Samumed, LLC, priority 2017, dated 2020)

Assays:
[1] = target: DYRK1A kinase (Homo sapiens, UniProt Q13627); assay: DYRK1A kinase activity (Ser/Thr 18 peptide Z-lyte FRET assay); type: biochemical; conditions: recombinant DYRK1A, 30 μM ATP, one hour at room temperature;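 further: kinase activity read as coumarin/fluorescein emission ratio after development step, with unphosphorylated and phosphorylated peptide forms setting 0% and 100% controls, values from dose-response curves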
Experimental: Representative compounds were screened using the assay procedure for DYRK1A kinase activity as described below.
Each compound was dissolved in DMSO as a 10 mM stock and used to prepare compound source plates.
This is a non-radioactive assay using fluorescence resonance energy transfer (FRET) between coumarin and fluorescein to detect kinase activity which is represented as a ratio of coumarin emission/fluorescein emission.
The mixture was allowed to incubate with the representative compounds for one hour at room temperature. All reactions were performed in duplicate. Unphosphorylated (“0% Control”) and phosphorylated (“100% control”) forms of Ser/Thr 18 served as control reactions. Additionally, an 11-point dose-response curve of Staurosporine (1 uM top) was run to serve as a positive compound control.
After incubation, Development Reagent A was diluted in Development Buffer then added to the reaction and allowed to further incubate for one hour at room temperature.
Dose-response curves were generated and inhibitory concentration (IC50) values were calculated using non-linear regression curve fit in the Dotmatics' Studies Software (Bishops Stortford, UK).

[2] = target: GSK3β kinase (Homo sapiens, UniProt P49841); assay: GSK3β kinase activity (Ser/Thr 09 peptide Z-lyte FRET assay); type: biochemical; conditions: recombinant kinase, 46 μM ATP, one hour at room temperature; read-out: EC50
Sequence of GSK3β kinase (P49841 whole entry): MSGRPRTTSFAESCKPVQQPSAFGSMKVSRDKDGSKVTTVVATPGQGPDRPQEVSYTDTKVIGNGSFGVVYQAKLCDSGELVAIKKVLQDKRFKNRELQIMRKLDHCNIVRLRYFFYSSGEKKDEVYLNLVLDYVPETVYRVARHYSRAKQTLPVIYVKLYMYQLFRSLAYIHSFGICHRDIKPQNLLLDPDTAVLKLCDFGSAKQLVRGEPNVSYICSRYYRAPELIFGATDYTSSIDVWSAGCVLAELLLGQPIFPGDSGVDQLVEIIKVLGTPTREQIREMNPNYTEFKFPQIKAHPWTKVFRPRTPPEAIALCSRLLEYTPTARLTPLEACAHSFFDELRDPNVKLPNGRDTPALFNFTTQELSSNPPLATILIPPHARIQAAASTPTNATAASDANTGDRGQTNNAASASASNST

[3] = system: secreted cytokines TNFα, IL-6 and KC-GRO; assay: Secreted cytokines in Lipopolysaccharide-stimulated BV-2 cells (Table 9 does not say which cytokine); type: cell-based, mouse; conditions: Mus musculus, BV-2, 5 h; read-out: EC50
[4] = system: SW480 colon carcinoma cells; assay: Cell viability assay (CellTiter-Glo); conditions: Homo sapiens; for EC50: SW480, 96 h; for inhibition at 10 µM: SW480, read-out: percent inhibition at 10 μM
[5] = system: Wnt-responsive Sp5-Luc reporter in SW480 colon carcinoma cells; assay: Screening assay for Wnt activity (Sp5-Luc reporter gene assay); conditions: Homo sapiens; for EC50: SW480; for inhibition at 10 µM: SW480, read-out: percent inhibition at 10 μM
[6] = system: IL-6; assay: IL-6 inhibition in LPS-stimulated human peripheral blood mononuclear cells (HTRF); conditions: Homo sapiens, PBMC; for EC50: 22 h; for inhibition at 10 µM: read-out: percentage in parentheses after EC50 >10
[7] = system: α-smooth muscle actin (aSMA) positive LL29 cells; assay: Inhibition of the fibrotic process: αSMA staining in TGF-β1 treated LL29 fibroblasts from IPF patients; conditions: Homo sapiens, Fibroblast; for EC50: 96 h; for inhibition at 10 µM: read-out: percentage in parentheses after EC50 >10

SMILES	EC50 [1]	EC50 [2]	EC50 [3]	EC50 [4]	EC50 [5]	EC50 [6]	EC50 [7]	inhibition at 10 µM [6]	inhibition at 10 µM [4]	inhibition at 10 µM [5]	inhibition at 10 µM [7]
CN1CCC(n2cc(C(=O)Nc3cc4nc(-c5cnn(C)c5)ccc4cn3)cn2)CC1 [Compound 229, N-(2-(1-Methyl-1H-pyrazol-4-yl)-1,6-naphthyridin-7-yl)-1-(1-methylpiperidin-4-yl)-1H-pyrazole-4-carboxamide]	11 nM	2900 nM	62 nM	122 nM	90 nM	859 nM	318 nM	–	–	–	–
Cn1ncc(-c2ccc3cnc(NC(=O)c4ccnc(N5CCOCC5)c4)cc3n2)c1CN1CCOCC1 [Compound 314, N-(2-(1-Methyl-5-(morpholinomethyl)-1H-pyrazol-4-yl)-1,6-naphthyridin-7-yl)-2-morpholinoisonicotinamide]	8 nM	2610 nM	138 nM	441 nM	368 nM	> 10000 nM	989 nM	47.6%	–	–	–
CN(C)C1CCN(c2cc(C(=O)Nc3cc4nc(-c5cn(C)nn5)ccc4cn3)ccn2)CC1 [Compound 376, 2-(4-(Dimethylamino)piperidin-1-yl)-N-(2-(1-methyl-1H-1,2,3-triazol-4-yl)-1,6-naphthyridin-7-yl)isonicotinamide]	19 nM	665 nM	1700 nM	1510 nM	3420 nM	7960 nM	3480 nM	–	–	–	–
CN1CCCN(c2cc(C(=O)Nc3cc4nc(-c5cn(C)nn5)ccc4cn3)ccn2)CC1 [Compound 379, 2-(4-Methyl-1,4-diazepan-1-yl)-N-(2-(1-methyl-1H-1,2,3-triazol-4-yl)-1,6-naphthyridin-7-yl)isonicotinamide]	11 nM	359 nM	734 nM	1340 nM	1600 nM	2080 nM	2140 nM	–	–	–	–
CC(C)OCCC(=O)Nc1cc2nc(-c3cncn3C)ccc2cn1 [Compound 416, 3-Isopropoxy-N-(2-(1-methyl-1H-imidazol-5-yl)-1,6-naphthyridin-7-yl) propanamide]	31 nM	49 nM	3300 nM	> 10000 nM	386 nM	5760 nM	355 nM	–	52.1%	–	–
CC(F)(F)CN1CCC(C(=O)Nc2cc3nc(-c4cnco4)ccc3cn2)CC1 [Compound 540, 1-(2,2-Difluoropropyl)-N-(2-(oxazol-5-yl)-1,6-naphthyridin-7-yl)piperidine-4-carboxamide]	22 nM	644 nM	≥ 10000 nM	> 10000 nM	> 10000 nM	> 10000 nM	> 10000 nM	3.9%	5.3%	11.8%	50%
O=C(Nc1cc2nc(-c3cncs3)ccc2cn1)c1ccc(OC2CCNCC2)cc1 [Compound 624, 4-(Piperidin-4-yloxy)-N-(2-(thiazol-5-yl)-1,6-naphthyridin-7-yl)benzamide]	3 nM	2930 nM	8800 nM	694 nM	750 nM	3080 nM	491 nM	–	–	–	–
Cc1ncc(-c2ccc3cnc(NC(=O)c4ccncc4)cc3n2)s1 [Compound 641, N-(2-(2-Methylthiazol-5-yl)-1,6-naphthyridin-7-yl)isonicotinamide]	8 nM	2560 nM	433 nM	1680 nM	977 nM	> 10000 nM	347 nM	16.4%	–	–	–
Cc1ncc(-c2ccc3cnc(NC(=O)c4cccnc4)cc3n2)s1 [Compound 642, N-(2-(2-Methylthiazol-5-yl)-1,6-naphthyridin-7-yl)nicotinamide]	6 nM	3060 nM	1300 nM	1030 nM	869 nM	> 10000 nM	988 nM	22.4%	–	–	–
Cc1ncc(-c2ccc3cnc(NC(=O)c4ccnc(N5CCN(C)CC5)c4)cc3n2)s1 [Compound 643, 2-(4-Methylpiperazin-1-yl)-N-(2-(2-methylthiazol-5-yl)-1,6-naphthyridin-7-yl)isonicotinamide]	10 nM	8560 nM	≥ 10000 nM	803 nM	688 nM	9220 nM	1430 nM	–	–	–	–
Nc1cncc(-c2ccc3cnc(NC(=O)c4ccc(OC5CCNCC5)cc4)cc3n2)c1 [Compound 804, N-(2-(5-Aminopyridin-3-yl)-1,6-naphthyridin-7-yl)-4-(piperidin-4-yloxy)benzamide]	2 nM	4680 nM	104 nM	272 nM	289 nM	1590 nM	482 nM	–	–	–	–
O=C(Nc1cc2nc(-c3cncc(NCC4(F)CNC4)n3)ccc2cn1)C1CC1 [Compound 871, N-(2-(6-(((3-Fluoroazetidin-3-yl)methyl)amino)pyrazin-2-yl)-1,6-naphthyridin-7-yl)cyclopropanecarboxamide]	25 nM	360 nM	306 nM	> 10000 nM	> 10000 nM	3420 nM	8050 nM	–	33.5%	24.7%	–
CN1CCN(c2cccc(C(=O)Nc3ncc4ccc(-c5cnn(C)c5)cc4n3)c2)CC1 [Compound 1047, N-(7-(1-Methyl-1H-pyrazol-4-yl)quinazolin-2-yl)-3-(4-methylpiperazin-1-yl) benzamide]	8 nM	661 nM	780 nM	8470 nM	573 nM	3710 nM	1930 nM	–	–	–	–
CN1CCN(c2cc(C(=O)Nc3ncc4ccc(-c5cnn(C)c5)cc4n3)ccn2)CC1 [Compound 1054, N-(7-(1-Methyl-1H-pyrazol-4-yl)quinazolin-2-yl)-2-(4-methylpiperazin-1-yl) isonicotinamide]	8 nM	3650 nM	1200 nM	719 nM	468 nM	3930 nM	2340 nM	–	–	–	–

Further molecules by falling EC50 [1], results first:

EC50 [1]	EC50 [2]	EC50 [3]	EC50 [4]	EC50 [5]	EC50 [6]	SMILES	EC50 [7]	inhibition at 10 µM [6]	inhibition at 10 µM [4]	inhibition at 10 µM [5]	inhibition at 10 µM [7]
29 nM	> 10000 nM	449 nM	> 10000 nM	> 10000 nM	> 10000 nM	O=C(Nc1cc2nc(-c3cnco3)ccc2cn1)c1ccncc1 [Compound 592, N-(2-(Oxazol-5-yl)-1,6-naphthyridin-7-yl)isonicotinamide]	9 nM	25.3%	11.7%	5%	–
16 nM	9920 nM	2700 nM	> 10000 nM	> 10000 nM	> 10000 nM	O=C(Nc1cc2nc(-c3cncc(NC4CCNCC4)n3)ccc2cn1)C1CCOCC1 [Compound 877, N-(2-(6-(Piperidin-4-ylamino)pyrazin-2-yl)-1,6-naphthyridin-7-yl)tetrahydro-2H-pyran-4-carboxamide]	> 10000 nM	6.8%	11.7%	0%	23.6%
9 nM	3130 nM	286 nM	9430 nM	2150 nM	> 10000 nM	CN1CCN(c2ccc(C(=O)Nc3ncc4ccc(-c5cnn(C)c5)cc4n3)cn2)CC1 [Compound 1058, N-(7-(1-Methyl-1H-pyrazol-4-yl)quinazolin-2-yl)-6-(4-methylpiperazin-1-yl)nicotinamide]	> 10000 nM	3%	–	–	8.8%
7 nM	> 10000 nM	265 nM	860 nM	484 nM	4200 nM	CN1CCN(c2cc(C(=O)Nc3cc4nc(-c5ccc(N)nc5)ccc4cn3)ccn2)CC1 [Compound 807, N-(2-(6-Aminopyridin-3-yl)-1,6-naphthyridin-7-yl)-2-(4-methylpiperazin-1-yl)isonicotinamide]	1410 nM	–	–	–	–
5 nM	> 10000 nM	266 nM	109 nM	121 nM	1680 nM	CN1CCC(n2cc(C(=O)Nc3cc4nc(-c5cncc6[nH]ccc56)ccc4cn3)cn2)CC1 [Compound 896, N-(2-(1H-Pyrrolo[2,3-c]pyridin-4-yl)-1,6-naphthyridin-7-yl)-1-(1-methylpiperidin-4-yl)-1H-pyrazole-4-carboxamide]	335 nM	–	–	–	–
4 nM	2250 nM	26 nM	229 nM	124 nM	1890 nM	CC(C)OC(=O)N1CCC(n2cc(C(=O)Nc3cc4nc(-c5cnn(C)c5)ccc4cn3)cn2)CC1 [Compound 234, Isopropyl 4-(4-((2-(1-methyl-1H-pyrazol-4-yl)-1,6-naphthyridin-7-yl)carbamoyl)-1H-pyrazol-1-yl)piperidine-1-carboxylate]	329 nM	–	–	–	–
4 nM	8260 nM	130 nM	> 10000 nM	964 nM	> 10000 nM	O=C(Nc1cc2nc(-c3cncs3)ccc2cn1)c1ccncc1 [Compound 625, N-(2-(Thiazol-5-yl)-1,6-naphthyridin-7-yl)isonicotinamide]	3010 nM	6.5%	47.8%	–	–
